IC50 data for 30 compounds are collected here from patent US11021481B2, “Substituted isoindolin-1-ones and 2,3-dihydro-1h-pyrrolo[3,4-c]pyridin-1-ones as HPK1 antagonists” (Nimbus Saturn, Inc., priority 2019, dated 2021).

For orientation: IC50 means the concentration needed to halve the response being measured.

Some results are limits rather than exact numbers.

The experiment deals with HPK1 (Homo sapiens (Human), UniProt Q92918). Nature of the experiment: HPK1 biochemical enzyme assay (microfluidic mobility shift assay). To be noted: 1.5 nM HPK1, ATP 1 mM final, 30 min preincubation, 60 min at RT, Caliper EZ Reader; read-out: HPK1 1000UMATP caliper IC50. Put shortly: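 Mobility shift readout of HPK1 activity after a 60 min RT reaction with 1 mM ATP, 1 μM substrate and 5 mM MgCl2. Enzyme/substrate mix was first exposed to compounds for 30 min, using ten-point curves topping at 3 μM final.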
Sequence of HPK1 (Q92918 whole entry): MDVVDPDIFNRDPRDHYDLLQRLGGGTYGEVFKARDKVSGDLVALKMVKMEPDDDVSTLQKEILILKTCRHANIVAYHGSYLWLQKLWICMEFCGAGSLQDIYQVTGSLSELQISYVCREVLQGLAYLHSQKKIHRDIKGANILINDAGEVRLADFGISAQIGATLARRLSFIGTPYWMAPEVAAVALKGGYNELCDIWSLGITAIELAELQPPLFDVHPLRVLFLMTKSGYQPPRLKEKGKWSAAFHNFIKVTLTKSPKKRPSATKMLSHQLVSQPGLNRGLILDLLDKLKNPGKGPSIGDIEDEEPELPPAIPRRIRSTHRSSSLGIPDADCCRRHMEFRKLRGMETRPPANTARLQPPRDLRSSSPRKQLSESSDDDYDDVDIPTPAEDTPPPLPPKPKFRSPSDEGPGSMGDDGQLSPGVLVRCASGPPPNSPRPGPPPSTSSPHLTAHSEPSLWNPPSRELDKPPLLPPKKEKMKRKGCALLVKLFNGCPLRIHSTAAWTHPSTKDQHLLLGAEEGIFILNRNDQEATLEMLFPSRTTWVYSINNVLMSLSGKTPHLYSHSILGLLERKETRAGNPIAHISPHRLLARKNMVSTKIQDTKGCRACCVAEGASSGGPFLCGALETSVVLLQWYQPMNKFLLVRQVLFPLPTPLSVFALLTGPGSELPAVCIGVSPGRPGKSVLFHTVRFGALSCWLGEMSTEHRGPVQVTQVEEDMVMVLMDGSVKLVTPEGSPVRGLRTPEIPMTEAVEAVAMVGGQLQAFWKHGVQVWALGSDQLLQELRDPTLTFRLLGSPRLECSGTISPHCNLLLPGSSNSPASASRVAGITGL
As for `O=C1NCc2c(-c3cnn4c3CCCC4)ncc(Nc3ccc(N4CCC(O)CC4)cn3)c21` [I-330, 7-((5-(4-hydroxypiperidin-1-yl)pyridin-2-yl)amino)-4-(4,5,6,7-tetrahydropyra-zolo[1,5-a]pyridin-3-yl)-2,3-dihydro-1H-pyrrolo[3,4-c]pyridin-1-one], the IC50 was 0.1 to 1 µM. The value for `CN1C[C@H](c2ccc(Nc3ccc(-c4cnc5cnccn45)c4c3C(=O)NC4)nc2)CC1=O` [I-331, (S)-4-(imidazo[1,2-a]pyrazin-3-yl)-7-((5-(1-methyl-5-oxopyrrolidin-3-yl)pyridin-2-yl)amino)isoin-dolin-1-one] was under 0.1 µM. The value for `O=C1NCc2c(-c3cnc4cc(F)ccn34)ccc(Nc3ccc(N4CCOCC45CC5)cn3)c21` [I-335, 7-((5-(7-oxa-4-azaspiro[2.5]octan-4-yl)pyridin-2-yl)amino)-4-(7-fluoroimidazo [1,2-a]pyridin-3-yl)isoindolin-1-one] was under 0.1 µM. The value for `CN1CC[C@H](c2ccc(Nc3ccc(-c4cnc5cc(F)ccn45)c4c3C(=O)NC4)nc2)C1=O` [I-336, (R)-4-(7-fluoroimidazo [1,2-a]pyridin-3-yl)-7-((5-(1-methyl-2-oxopyrrolidin-3-yl)pyridin-2-yl)amino)isoin-dolin-1-one] was under 0.1 µM.

For `O=C1NCc2c(-c3cnc4cc(F)ccn34)ccc(Nc3ccc(N4CCOC[C@H](O)C4)cn3)c21` [I-338, (R)-4-(7-fluoroimidazo [1,2-a]pyridin-3-yl)-7-((5-(6-hydroxy-1,4-oxazepan-4-yl)pyridin-2-yl)amino)isoin-dolin-1-one], the IC50 was under 0.1 µM. Then `O=C1NCc2c(-c3cnc4cc(F)ccn34)ccc(Nc3ccc(N4CCOC[C@@H](O)C4)cn3)c21` [I-339, (S)-4-(7-fluoroimidazo [1,2-a]pyridin-3-yl)-7-((5-(6-hydroxy-1,4-oxazepan-4-yl)pyridin-2-yl)amino)isoin-dolin-1-one], with under 0.1 µM; and `O=C1NCc2c(-c3cnc4cc(F)ccn34)ccc(Nc3cccc(N4CCCC4=O)n3)c21` [I-340, 4-(7-fluoroimidazo [1,2-a]pyridin-3-yl)-7-((6-(2-oxopyrrolidin-1-yl)pyridin-2-yl)amino)isoin-dolin-1-one], with over 1 µM; and `Cn1ccc2c(-c3ncc(Nc4ccc(N5CCC(O)(CN6CCOCC6)CC5)cn4)c4c3CNC4=O)ccnc21` [I-343, 7-((5-(4-hydroxy-4-(morpholinomethyl)piperidin-1-yl)pyridin-2-yl)amino)-4-(1-methyl-1H-pyrrolo[2,3-b]pyridin-4-yl)-2,3-dihydro-1H-pyrrolo[3,4-c]pyridin-1-one], with under 0.1 µM. Regarding `CC(C)(O)[C@@H]1CN(c2ccc(Nc3ccc(-c4cnc5cc(F)ccn45)c4c3C(=O)NC4)nc2)CCO1` [I-344], the IC50 was under 0.1 µM. Regarding `CC(C)(O)[C@H]1CN(c2ccc(Nc3ccc(-c4cnc5cc(F)ccn45)c4c3C(=O)NC4)nc2)CCO1` [I-345, (R)-4-(7-fluoroimidazo[1,2-a]pyridin-3-yl)-7-((5-(2-(2-hydroxypropan-2-yl)morpholino)pyridin-2-yl)amino)isoindolin-1-one], the IC50 is under 0.1 µM. The value for `O=C1NCc2c(-c3cnc4cc(F)ccn34)ccc(Nc3ccc(N4CC[C@H](F)[C@@H](O)C4)cn3)c21` [I-346, 7-((5-((3S.4S)-4-fluoro-3-hydroxypiperidin-1-yl)pyridin-2-yl)amino)-4-(7-fluoroimidazo [1,2-a]pyridin-3-yl)isoindolin-1-one] was under 0.1 µM. With `O=C1NCc2c(-c3cnc4cc(F)ccn34)ccc(Nc3ccc(N4CC[C@@H](F)[C@H](O)C4)cn3)c21` [I-347, 7-((5-((3R,4R)-4-fluoro-3-hydroxy-piperidin-1-yl)pyridin-2-yl)amino)-4-(7-fluoroimidazo [1,2-a]pyridin-3-yl)isoindolin-1-one], the IC50 is under 0.1 µM. The value for `O=C1NCc2c(-c3cnc4cc(F)ccn34)ccc(Nc3ccc(N4CCC(O)(CN5CCOCC5)CC4)cn3)c21` [I-348, 4-(7-fluoroimidazo [1,2-a]pyridin-3-yl)-7-((5-(4-hydroxy-4-(morpholino-methyl)piperidin-1-yl)pyridin-2-yl)amino)isoin-dolin-1-one] was under 0.1 µM; that for `C[C@H]1C[C@@H](O)CCN1c1ccc(Nc2ccc(-c3cnc4cnccn34)c3c2C(=O)NC3)nc1` [I-349, 7-((5-((2S,4S)-4-hydroxy-2-methylpiperidin-1-yl)pyridin-2-yl)amino)-4-(imidazo[1,2-a]pyrazin-3-yl)isoindolin-1-one] was under 0.1 µM; that for `C[C@@H]1C[C@H](O)CCN1c1ccc(Nc2ccc(-c3cnc4cnccn34)c3c2C(=O)NC3)nc1` [I-350, 7-((5-((2R,4R]-4-hydroxy-2-methylpiperidin-1-yl)pyridin-2-yl)amino)-4-(imidazo[1,2-a]pyrazin-3-yl)isoindolin-1-one] was under 0.1 µM. The value for `C[C@@H]1C[C@@H](O)CCN1c1ccc(Nc2ccc(-c3cnc4cnccn34)c3c2C(=O)NC3)nc1` [I-351, 7-((5-((2R,4S)-4-hydroxy-2-methylpiperidin-1-yl)pyridin-2-yl)amino)-4-(imidazo[1,2-a]pyrazin-3-yl)isoindolin-1-one] was under 0.1 µM; that for `C[C@H]1C[C@H](O)CCN1c1ccc(Nc2ccc(-c3cnc4cnccn34)c3c2C(=O)NC3)nc1` [I-352, 7-((5-((2S,4R)-4-hydroxy-2-methylpiperidin-1-yl)pyridin-2-yl)amino)-4-(imidazo[1,2-a]pyrazin-3-yl)isoindolin-1-one] was under 0.1 µM; that for `CC(C)(O)[C@H]1CCCN(c2ccc(Nc3cnc(-c4cnn5c4CCCC5)c4c3C(=O)NC4)nc2)C1` [I-355, (S)-7-((5-(3-(2-hydroxy-propan-2-yl)piperidin-1-yl)pyridin-2-yl)amino)-4-(4,5,6,7-tetrahydropyra-zolo[1,5-a]pyridin-3-yl)-2,3-dihydro-1H-pyrrolo[3,4-c]pyridin-1-one] was under 0.1 µM. The value for `O=C1NCc2c(-c3cnc4cnccn34)ccc(Nc3ccc(N4CCOC(CO)C4)cn3)c21` (stereo not drawn) [I-358, 7-((5-(2-(hydroxymeth-yl)morpholino)-pyridin-2-yl)amino)-4-(imidazo[1,2-a]pyrazin-3-yl)isoindolin-1-one] was under 0.1 µM; that for `O=C1NCc2c(-c3cnc4cc(F)ccn34)ccc(Nc3ccc(N4CC[C@H](F)[C@H](O)C4)cn3)c21` [I-359, 7-((5-((3R,4S)-4-fluoro-3-hydroxy-piperidin-1-yl)pyridin-2-yl)amino)-4-(7-fluoroimidazo [1,2-a]pyridin-3-yl)isoindolin-1-one] was under 0.1 µM; that for `Cc1csc2c(-c3ccc(Nc4ccc(N5CCC(O)CC5)cn4)c4c3CNC4=O)ccnc12` [I-361, 7-((5-(4-hydroxypip-eridin-1-yl)pyridin-2-yl)amino)-4-(3-methylthieno [3,2-b]pyridin-7-yl)isoindolin-1-one] was under 0.1 µM. For `Cn1ccc2c(-c3ccc(Nc4ccc(N5CCC(O)CC5)cn4)c4c3CNC4=O)cnc-2c1` [I-362, 7-((5-(4-hydroxy-piperidin-1-yl)pyridin-2-yl)amino)-4-(6-methyl-6H-pyrrolo[2,3-c]pyridin-3-yl)isoindolin-1-one], the half-maximal inhibitory concentration (IC50) is under 0.1 µM. Then `CN1CCN(CC2(O)CCN(c3ccc(Nc4ccc(-c5cnc6cc(F)ccn56)c5c4C(=O)NC5)nc3)CC2)CC1` [I-365, 4-(7-fluoroimidazo [1,2-a]pyridin-3-yl)-7-((5-(4-hydroxy-4-((4-methylpiperazin-1-yl)methyl)pip-eridin-1-yl)pyridin-2-yl)amino)isoin-dolin-1-one], with under 0.1 µM; and `CN(C)CC1(O)CCN(c2ccc(Nc3ccc(-c4cnc5cc(F)ccn45)c4c3C(=O)NC4)nc2)CC1` [I-366, 7-((5-(4-((dimethylamino)-methyl)-4-hydroxypiperidin-1-yl)pyridin-2-yl)amino)-4-(7-fluoroimidazo [1,2-a]pyridin-3-yl)isoindolin-1-one], with under 0.1 µM; and `O=C1NCc2c(-c3cnn4c3CCCC4)ncc(Nc3ccc(N4CCOCC4)cn3)c21` [I-367, 7-((5-morpholinopyridin-2-yl)amino)-4-(4,5,6,7-tetrahdropyra-zolo[1,5-a]pyridin-3-yl)-2,3-dihydro-1H-pyrrolo[3,4-c]pyridin-1-one], with under 0.1 µM. Consider `O=C1NCc2c(-c3cccc4ccnn34)ncc(Nc3ccc(N4CCC(O)CC4)cn3)c21` [I-368, 7-((5-(4-hydroxypiperidin-1-yl)pyridin-2-yl)amino)-4-(pyrazolo[1,5-a]pyridin-7-yl)-2,3-dihydro-1H-pyrrolo[3,4-c]pyridin-1-one], for which the IC50 was over 1 µM. For the compound `O=C1NCc2c(-c3ccc4cnccn34)ccc(Nc3ccc(N4CCC(O)CC4)cn3)c21` [I-369, 7-((5-(4-hydroxypiper-idin-1-yl)pyridin-2-yl)amino)-4-(pyrrolo[1,2-a]pyrazin-6-yl)isoindolin-1-one], the concentration for half-maximal inhibition (IC50) is under 0.1 µM. Then `O=C1NCc2c(-c3cccn4nccc34)ncc(Nc3ccc(N4CCC(O)CC4)cn3)c21` [I-370, 7-((5-(4-hydroxy-piperidin-1-yl)pyridin-2-yl)amino)-4-(pyrazolo[1,5-a]pyridin-4-yl)-2,3-dihydro-1H-pyrrolo[3,4-c]pyridin-1-one], with 0.1 to 1 µM; and `O=C1NCc2c(-c3cnc4cc(F)ccn34)ccc(Nc3ccc(C4(O)CCOCC4)cn3)c21` [I-371, 4-(7-fluoroimidazo [1,2-a]pyridin-3-yl)-7-((5-(4-hydroxtetra-hydro-2H-pyran-4-yl)pyridin-2-yl)amino)isoin-dolin-1-one], with under 0.1 µM. The value for `COc1cc(Nc2ccc(-c3cnc4cc(F)ccn34)c3c2C(=O)NC3)ncc1N1CCC(O)CC1` [I-372, 4-(7-fluoroimidazo [1,2-a]pyridin-3-yl)-7-((5-(4-hydroxypipendin-1-yl)-4-methoxypyridin-2-yl)amino)isoin-dolin-1-one] was under 0.1 µM.
